Measurements as given in patent US20110028552A1, “MEXILETINE AMINO ACID AND PEPTIDE PRODRUGS AND USES THEREOF” (priority 2009, published 2011).
Where “and” joins values, the source holds several entries; their conditions need not be identical. Equal values may be shown once. Where a name gives a salt, the structure may show the parent alone. Read-outs that look alike come from different tables or passages of the source.

How the values were obtained:
[1] = Systemic availability of mexiletine in the dog after oral prodrug dosing; format: in vivo, Dog (Beagle); details: 1 mg/kg mexiletine free base
Protocol: Test substances (i.e., mexiletine, and various mexiletine amino acid prodrugs) were administered by oral gavage to groups of five dogs. The characteristics of the test animals are set out in Table 6.
Blood samples were taken at various times after administration and submitted to analysis for parent drug using a validated LC-MS-MS assay. Pharmacokinetic parameters derived from the plasma analytical were determined using Win Nonlin.

[2] = cited from earlier work
hNav 1.1 channel = target: T1, hNav 1.1 channel (Homo sapiens, UniProt P35498); assay: Block of cloned hNav1.1 channel in CHO cells (IonWorks Quattro); format: cell-based; details: for IC50 fold above the parent: relative to mexiletine
T1 construct: expressed in transfected cells
Protocol: Data was corrected for leak current.
The tonic block was calculated as:
% Block (Tonic)=(1−ITP1,TA/ITP1,Control)×100%,
where ITP1, Control and ITP1, TA are the inward peak Na^+ currents elicited by the TP1 in control and in the presence of a test article, respectively. 10 Hz Block—the frequency-dependent block at stimulation frequency 10 Hz was calculated as: […]
where ITP11, Control and ITP11, TA are the inward peak Na^+ currents elicited by the TP11 in control and in the presence of a test article, respectively. The inactivation state block is defined as the decrease in test pulse (TP12) current amplitude due to the conditioning depolarizing pulse (TP11). The inactivation state block was calculated as:
% Block (inactivation state)=(1−(ITP12,TA/ITP12,TA)×100%,
where ITP12, Control and ITP12, TA are the inward peak Na^+ currents elicited by the TP12 in control and in the presence of a test article, respectively. Concentration-response data for the blocks were fit to an equation of the following form: […]

[3] = system: rabbit stomach smooth muscle; assay: EFS-stimulated contractions of isolated rabbit stomach smooth muscle; details: rabbit stomach antrum strips; EFS 14 Hz
sodium channel = details: De Bellis et al. (2006); cited from earlier work
[4] = cited from earlier work; remark: listed apart in the source
[5] = Systemic availability of mexiletine in the cynomolgus monkey after oral prodrug dosing; format: in vivo; details: 1 mg/kg mexiletine free base
[6] = mexiletine from prodrug vs parent
Protocol: Blood samples were taken at various times after administration and submitted to analysis for the prodrug and parent drug using a validated LC-MS-MS assay. Pharmacokinetic parameters derived from the plasma analytical were determined using Win Nonlin.

[7] = hNav1.1, 10 Hz block, rounded values, read-out: IC50 values (with the 10 Hz block)
[8] = hNav1.1 in CHO cells, frequency-dependent block at 10 Hz (TP11), read-out: IC50 10 Hz block
[9] = hNav1.1 in CHO cells, inactivation state block (TP12), read-out: IC50 Inactivated state
[10] = hNav1.1 in CHO cells, tonic block (TP1), read-out: IC50 Tonic block

Row | Molecule | IC50 (hNav 1.1 channel; [8]) | IC50 (hNav 1.1 channel; [9]) | IC50 (hNav 1.1 channel; [10]) | further results
1 | Cc1cccc(C)c1OCC(C)NC(=O)[C@@H](N)C(C)C.Cl (some centres unmarked) [Mexiletine valine amide] |  |  |  | F (abs) [1]: 35 ± 6%
2 | NCC1(CC(=O)O)CCCCC1 [gabapentin] |  |  |  | Bioavailability ([2]; 900 mg/day gabapentin): approximately 60%; Bioavailability ([2]; 1200 mg/day gabapentin): ~47%; Bioavailability ([2]; 2400 mg/day gabapentin): ~34%; Bioavailability ([2]; 3600 mg/day gabapentin): ~33%; Bioavailability ([2]; 4800 mg/day gabapentin): ~27%
3 | Cc1cccc(C)c1OCC(C)N.Cl (racemic) [Mexiletine hydrochloride, (rac)-1-(2,6-dimethylphenoxy)-2-propanamine hydrochloride, reference compound] | 38.2 µM | 9.1 µM | 115 µM | IC50 (hNav 1.1 channel; [7]): 38 µM; calculated ED50, attenuation of EFS induced contractions [3]: 2.17 µM
4 | Cc1cccc(C)c1OCC(C)NC(=O)[C@@H](N)CCCCN (mixture of isomers) [Mexiletine lysine amide, 2,6-diamino-hexanoic acid [2-(2,6-dimethylphenoxy)-1-methylethyl]-amide ditrifluoroacetate] |  |  |  | calculated ED50, attenuation of EFS induced contractions [3]: 21.83 µM
5 | Cc1cccc(C)c1OCC(C)NC(=O)C(N)Cc1c[nH]cn1 (centres unmarked) [Mexiletine histidine amide] | 42.1 µM | 21.2 µM | 79.5 µM | 
6 | Cc1cccc(C)c1OCC(C)NC(=O)C(N)C1CC1 (centres unmarked) [Mexiletine cyclopropyl glycine amide] | 170 µM | 42.7 µM | 475 µM | 
7 | Cc1cccc(C)c1OCC(C)NC(=O)C(C)CN (stereo not drawn) [Mexiletine 2-methyl β alanine amide] | 51.8 µM | 16.3 µM | 137 µM | 
8 | Para-hydroxymexiletine |  |  |  | sodium channel inhibitory activity retained vs parent molecule (sodium channel): around 25%
9 | Cc1cccc(C)c1OCC(C)NC(=O)[C@@H](N)CCC(N)=O (stereo partly drawn) [Mexiletine glutamine amide, (S)-2-Amino-pentanedioic acid 5-amide 1-{[2-(2,6-dimethyl-phenoxy)-1-methyl-ethyl]-amide}hydrochloride] | 139 µM | 67.3 µM | 751 µM | 
10 | Cc1cccc(C)c1OCC(C)NC(=O)[C@@H](N)CCC(=O)O.Cl (stereo partly drawn) [Mexiletine glutamic acid amide, (S)-4-Amino-4-[2-(2,6-dimethyl-phenoxy)-1-methyl-ethylcarbamoyl]-butyric acid hydrochloride] | > 1000 µM | > 1000 µM | > 1000 µM | IC50 (hNav 1.1 channel; [7]): > 1000 µM; IC50 fold above the parent (hNav 1.1 channel; hNav1.1): ~20 fold
11 | Cc1cccc(C)c1OCC(C)NC(=O)[C@@H](N)CC[S+](C)C.Cl.[Cl-] (stereo partly drawn) [(S)-2-Amino-N-[2-(2,6-dimethyl-phenoxy)-1-methyl-ethyl]-4-(dimethyl-λ^4-sulfanyl chloride)-butyramide hydrochloride] | > 1000 µM | > 1000 µM | > 1000 µM | IC50 fold above the parent (hNav 1.1 channel; hNav1.1): ~20 fold
12 | CNCC[C@H](Oc1cccc2ccccc12)c1cccs1 [Duloxetine] |  |  |  | treated patients with nausea ([4]; FDA labeling): 20-40%
13 | Cc1cccc(C)c1OCC(C)NC(=O)[C@@H](N)CCCCNC(=N)N (stereo partly drawn) [Mexiletine homoarginine amide, (S)-2-Amino-6-guanidino-hexanoic acid [2-(2,6-dimethyl-phenoxy)-1-methyl-ethyl]-amide dihydrochloride] | 624 µM | 257 µM | 742 µM | IC50 (hNav 1.1 channel; [7]): 624 µM; IC50 fold above the parent (hNav 1.1 channel; hNav1.1): ~20 fold
14 | Cc1cccc(C)c1OCC(C)NC(=O)c1cccnc1 (centres unmarked) [Mexiletine nicotinic acid amide] | 350 µM | 61.2 µM | 495 µM | 
15 | Cc1cccc(C)c1OCC(C)NC(=O)[C@@H](N)Cc1ccccc1.Cl (some centres unmarked) [Mexiletine phenylalanine amide] |  |  |  | F (abs) [1]: 38 ± 6%
16 | CC(C)C[C@H](CN)CC(=O)O [pregabalin] |  |  |  | patients with dizziness and somnolence ([4]; patients treated at the higher doses (FDA labeling)): up to 30%
17 | Cc1cccc(C)c1OCC(C)NC(=O)C(N)C(C)O (centres unmarked) [Mexiletine threonine amide] | 41.4 µM | 11.6 µM | 234 µM | 
18 | Cc1cccc(C)c1OCC(C)NC(=O)[C@@H](NC(=O)[C@@H](N)C(C)C)C(C)C.Cl (some centres unmarked) [Mexiletine valine-valine amide] |  |  |  | F (abs) [1]: 50 ± 9%
19 | Cc1cccc(C)c1OCC(C)NC(=O)CCN (stereo not drawn) [Mexiletine β alanine amide] | 59.5 µM | 23.5 µM | 245 µM | 
20 | Cc1cccc(C)c1OCC(C)NC(=O)C1CCCCN1 (centres unmarked) [Mexiletine pipecolic acid amide] | 6 µM | 2.7 µM | 26 µM | 
21 | CNCC(=O)NC(C)COc1c(C)cccc1C (centres unmarked) [Mexiletine sarcosine amide] | 38.9 µM | 6.3 µM | 186 µM | 
22 | Cc1cccc(C)c1OCC(C)NC(=O)CN.O=C(O)C(F)(F)F (racemic) [(rac)-mexiletine-glycine trifluoroacetate] | 107 µM | 21.2 µM | 398 µM | F (abs) [1]: 57 ± 6%; F (abs) [5]: 41.5 ± 4.11%; Frel ([6]; individual ferrets, oral 10 mg free base equivalents/kg): 67% and 107% and 103% and 77% and 108% and 101%; Frel, Mean ([6]; mean of six ferrets): 94%; duration of vomiting relative to mexiletine (ferret; % of that seen after mexiletine itself): less than 30%; average number of vomits relative to parent drug (ferret; % of those observed after dosing the parent drug): less than 30%; calculated ED50, attenuation of EFS induced contractions [3]: 9.16 µM
23 | Cc1cccc(C)c1OCC(C)NC(=O)C1CC(O)CN1 (centres unmarked) [Mexiletine 4-hydroxyproline amide] | 37 µM | 15.5 µM | 147 µM | 
24 | Cc1cccc(C)c1OCC(C)NC(=O)C(N)CN (stereo not drawn) [Mexiletine β amino alanine amide] | 180 µM | 61.8 µM | 478 µM | 
25 | Cc1cccc(C)c1OCC(C)NC(=O)c1ccncc1 (centres unmarked) [Mexiletine isonicotinic acid amide] | 439 µM | 130 µM | 818 µM | 
26 | Cc1cccc(C)c1OCC(C)NC(=O)CN(C)C (centres unmarked) [Mexiletine dimethylglycine amide] | 10.3 µM | 3.2 µM | 30.5 µM | 
27 | Cc1cccc(C)c1OCC(C)NC(=O)C(N)CO (centres unmarked) [Mexiletine serine amide] | 50.3 µM | 14.1 µM | 239 µM | 
28 | Cc1cccc(C)c1OCC(C)NC(=O)C(N)CCCNC(N)=O (centres unmarked) [Mexiletine citrulline amide] | 359 µM | 180 µM | 491 µM | 
